In patent US8039488B2, “Methods and compositions for inhibition of angiogenesis” (Children's Medical Center Corporation, priority 1996, dated 2011):

Experiments:
[1] = tested on: bFGF induced angiogenesis; test: Angiogenesis in the eye, assay described in Example 2, bFGF; type: in vivo, rabbit
Procedure: (§1) Angiogenesis in the eye, in the assay described in Example 2, is produced by the presence of bFGF (basic fibroblastic growth factor) and VEGF (vascular endothelial cell growth factor).
(§2) Pellets for implantation into rabbit corneas were made by mixing 110 μl of saline containing 12 μg of recombinant bFGF (Takeda Pharmaceuticals-Japan) with 40 mg of sucralfate (Bukh Meditec-Denmark); this suspension was added to 80 μl of 12% hydron (Interferon Sciences) in ethanol. 10 μl aliquots of this mixture was then pipetted onto Teflon pegs and allowed to dry producing approximately 17 pellets. A pellet was implanted into corneal micropockets of each eye of an anesthetized female New Zealand white rabbit, 2 mm from the limbus followed by topical application of erythromycin ointment onto the surface of the cornea. The animals were fed daily from 2 days post-implantation by gastric lavage with either drug suspended in 0.5% carboxymethyl cellulose or 0.5% carboxymethyl cellulose alone. Thalidomide was purchased from Andrulus Pharmaceutical (Maryland) and the EM-12 and Supidimide were kindly provided by Grunenthal GMBH (Germany). The animals were examined with a slit lamp every other day in a masked manner by the same corneal specialist. The area of corneal neovascularization was determined by measuring with a reticule the vessel length (L) from the limbus and the number of clock hours (C) of limbus involved. A formula was used to determine the area of a circular band segment: C/12*3.1416 [r^2−(r−L)^2] where r=6 mm the measured radius of the rabbit cornea.

[2] = tested on: bFGF induced angiogenesis; test: Mouse corneal micropocket assay, bFGF pellets; type: in vivo, mice; conditions: for inhibition in vivo at 100 mg/kg: dose 100 mg/kg once daily, area of corneal neovascularization vs controls; for inhibition in vivo at 200 mg/kg: dose 200 mg/kg once daily; for inhibition of bFGF induced neovascularization: dose not given
Procedure: (§3) Six to eight week old C57B 16 male mice were obtained from Jackson Laboratories, MA. The mice were anesthetized, and 0.4×0.4 mm pockets were made in the stroma of the mouse cornea adjacent to the limbus. Pellets containing 80 ng of either bFGF or VEGF were […]. The pellets containing bFGF were implanted 1.0-1.2 mm from the limbal vessels, while the pellets containing VEGF were implanted 0.5-0.7 mm from the limbal vessels. Erythromycin was then topically applied.
(§4) The vascular response to the pellets was measured by maximal vessel length and number of clock hours of neovascularization 5 days after implantation of the bFGF pellets and 6 days after implantation of the VEGF pellets. The area of corneal neovascularization was calculated using the following formula which best approximated the area of neovascularization: Area (mm^2)=[π×clock hours×length (mm)×0.2 (mm)].
(§5) Inhibitory effect is expressed in percentage representing the area of corneal neovascularization by either bFGF or VEGF compared to controls (n=8/experiment) of the experiments in which that particular drug was tested. N=the number of eyes that were tested and drugs were given once daily either sc, ip or oral as described.
(§6) Six to eight week old C57B 16 male mice were obtained from Jackson Laboratories, MA. The mice were anesthetized, and 0.4×0.4 mm pockets were made in the stroma of the mouse cornea adjacent to the limbus. Pellets containing 80 ng of either bFGF or VEGF were implanted. The pellets containing bFGF were implanted 1.0-1.2 mm from the limbal vessels, while the pellets containing VEGF were implanted 0.5-0.7 mm from the limbal vessels. Erythromycin was then topically applied.
(§7) The mice were then treated with thalidomide, indomethacin, sulindac, or combinations of thalidomide with either indomethacin or sulindac. The vascular response to the pellets was measured by maximal vessel length and number of clock hours of neovascularization 5 days after implantation of the bFGF pellets and 6 days after implantation of the VEGF pellets. The area of corneal neovascularization was calculated using the following formula which best approximates the area of neovascularization: Area (mm^2)=[π×clock hours×length (mm)×0.2 (mm)].
Six to eight week old C57B16 male mice, obtained from Jackson Laboratories, MA, were anesthetized, and 0.4×0.4 mm pockets were made in the stroma of the mouse cornea adjacent to the limbus. Pellets containing 80 ng of bFGF were implanted 1.0-1.2 mm from the limbal vessels. Erythromycin was then topically applied.
The mice were then treated with sulindac, or one of the sulindac derivatives, sulindac sulfone or sulindac sulfide. The vascular response to the pellets was measured by maximal vessel length and number of clock hours of neovascularization 5 days after implantation of the bFGF pellets. The area of corneal neovascularization was calculated using the following formula which best approximates the area of neovascularization: Area (mm^2)=[π×clock hours×length (mm)×0.2 (mm)].
Inhibitory effect is expressed in percentage representing the area of corneal neovascularization by bFGF compared to controls (n=8/experiment. N=the number of eyes that were tested and drugs were given once daily either sc, ip or oral as described.

[3] = tested on: VEGF induced angiogenesis; test: Angiogenesis in the eye, assay described in Example 2, VEGF; type: in vivo, rabbit
Procedure: as §1, §2

[4] = tested on: bFGF induced corneal neovascularization; test: Rabbit cornea angiogenesis assay; type: in vivo
Procedure: as §2
Pellets containing bFGF and sucralfate were implanted into micropockets of both corneas of rabbits according to Example II. Vessel ingrowth into clear cornea from the limbus was first noted on day 2 and treatments (200 mg/kg orally) were begun on this day. The area of corneal neovascularization was measured from day 4 through day 12. Day 8 measurements were used for comparison between groups. […] Statistical analysis was performed with ANOVA with ranked data to account for interexperimental variation and to guard against a non-normal distribution of data (i.e. outliers) by utilizing a nonparametric method.

[5] = tested on: bFGF induced corneal neovascularization; test: Rabbit cornea angiogenesis assay; type: in vivo; conditions: 100 mg/kg/day
[6] = tested on: VEGF induced angiogenesis; test: Mouse corneal micropocket assay, VEGF pellets; type: in vivo, mice; conditions: 6 days after implantation
Procedure: as §3, §4, §5, §6, §7

V2-carcinoma = V2-carcinoma tumor assay in rabbits; type: in vivo, rabbit; conditions: 17 days after start of treatment
Procedure: New Zealand White female rabbits, weighing approximately 1.5 kg, obtained from Charles River, Mass., were used for propagating the V2-carcinoma. This tumor originates from a Shope virus-induced papilloma. Small 0.5×0.5 cm pieces were implanted intramuscularly in the right thigh. Treatment with 200 mg/kg/day thalidomide (n=14), 60 mg/kg/day sulindac (n=5), or a combination of thalidomide and sulindac (n=10) was started at day 10 after tumor implantation, when the mean volume of the tumor was 6 cm^3. The control animals (n=13) were treated with methylcellulose. […] The data were collected in 3 separate experiments and each bar represents the standard error of the mean.

Crohn's disease = test: Treatment of a patient with Crohn's disease; type: in vivo, human; conditions: 100 mg twice a day orally, one week
Procedure: A patient with Crohn's disease was treated using the methods of the present invention. […] Thalidomide was orally administered to them at a dosage of 100 mg twice a day.

[7] = Mus musculus, 120 h, 5 days after implantation
[8] = Mus musculus, 120 h, dose 25 mg/kg once daily, 5 days after implantation

CO[C@@H]1[C@H](OC(=O)NC(=O)CCl)CC[C@]2(CO2)[C@H]1[C@@]1(C)O[C@@H]1CC=C(C)C [AGM 1470]
% Inhibition of bFGF induced angiogenesis ([1]; dose 30 mg/kg qod): 48%

CC(=O)Nc1ccc(O)cc1 [Acetaminophen]
inhibition in vivo at 100 mg/kg [2, 7]: 0% | % Inhibition of bFGF induced angiogenesis ([1]; dose 100 mg/kg): 0% | % Inhibition of VEGF induced angiogenesis ([3]; dose 100 mg/kg): 0%

CC(=O)Oc1ccccc1C(=O)O [Aspirin, aspirin]
% Inhibition of bFGF induced angiogenesis ([1]; dose 100 mg/kg): 8%

O=C1CCC(N2Cc3ccccc3C2=O)C(=O)N1 (stereo not shown) [EM-12]
median inhibition of the area of vascularized cornea ([4]; 200 mg/kg orally, day 8): 42% | % inhibition in the rabbit cornea assay ([4]; 200 mg/kg/day): 43% | % inhibition in the rabbit cornea assay [5]: 21%

O=c1ccc2cc(O)c(O)cc2o1 [Esculetin, esculetin]
inhibition in vivo at 200 mg/kg [2, 7]: 15%

C[C@]12CCC(=O)C=C1CC[C@@H]1[C@@H]2[C@@H](O)C[C@@]2(C)[C@H]1CC[C@]2(O)C(=O)CO [Hydrocortisone, hydrocortisone]
% Inhibition of bFGF induced angiogenesis ([1]; dose 20 mg/kg): 50% | % Inhibition of VEGF induced angiogenesis ([3]; dose 20 mg/kg): 40%

CC(C)Cc1ccc(C(C)C(=O)O)cc1 (stereo not shown) [Ibuprofen, ibuprofen]
inhibition in vivo at 25 mg/kg [2, 8]: 6% | % Inhibition of bFGF induced angiogenesis ([1]; dose 20 mg/kg): 7% | % Inhibition of VEGF induced angiogenesis ([6]; dose 25 mg/kg once daily): 8% | % Inhibition of VEGF induced angiogenesis ([3]; dose 20 mg/kg): 11%

COc1ccc2c(c1)c(CC(=O)O)c(C)n2C(=O)c1ccc(Cl)cc1 [Indomethacin, indomethacin]
inhibition in vivo at 5 mg/kg ([2]; Mus musculus, 120 h, dose 5 mg/kg once daily, 5 days after implantation): 59% | % Inhibition of VEGF induced angiogenesis ([6]; dose 5 mg/kg once daily): 61%

C[C@H](Cc1ccc(O)c(O)c1)[C@@H](C)Cc1ccc(O)c(O)c1 [NDGA, nordihydroguiaretic acid]
inhibition in vivo at 25 mg/kg [2, 8]: 30%

CS(=O)(=O)Nc1ccc([N+](=O)[O-])cc1OC1CCCCC1 [NS-398]
inhibition of bFGF induced neovascularization [2]: 25%

O=C1CCC(N2C(=O)c3ccccc3C2=O)C(=O)O1 (stereo not shown) [PGA]
inhibitory activity on corneal neovascularization, in words ([4]; 200 mg/kg orally): weaker inhibitory effects than thalidomide

O=C1CCN(c2ccccc2)N1 [Phenidone, phenidone]
inhibition in vivo at 100 mg/kg [2, 7]: 17%

O=c1c(O)c(-c2ccc(O)c(O)c2)oc2cc(O)cc(O)c12 [Quercetin, quercetin]
inhibition in vivo at 300 mg/kg ([2]; Mus musculus, 120 h, dose 300 mg/kg once daily, 5 days after implantation): 18%

CCCC(C(=O)OCCN(CC)CC)(c1ccccc1)c1ccccc1.Cl [SKF525AHCL]
inhibition of bFGF induced neovascularization [2]: 25%

CSc1ccc(/C=C2/C(C)=C(CC(=O)O)c3cc(F)ccc32)cc1 [Sulindac sulfide, sulindac sulfide]
inhibition in vivo at 25 mg/kg [2, 8]: 31% | % inhibition ([2]; dose 50 mg/kg once daily, bFGF pellets, 5 days after implantation): 34% | inhibition of bFGF induced neovascularization [2]: 34%

CC1=C(CC(=O)O)c2cc(F)ccc2/C1=C\c1ccc(S(C)(=O)=O)cc1 [Sulindac sulfone, sulindac sulfone]
% Inhibition of bFGF induced angiogenesis ([2]; dose 25 mg/kg once daily, 5 days after implantation): 31% | inhibition of bFGF induced neovascularization [2]: 31%

CC1=C(CC(=O)O)c2cc(F)ccc2/C1=C\c1ccc([S+](C)[O-])cc1 (stereo not shown) [Sulindac, (Z)-5-Fluoro-2-methyl-1-[[4-(methyl-sulfinyl)phenyl]methylene]-1H-indene-3-acetic acid]
inhibition in vivo at 25 mg/kg [2, 8]: 50% | % Inhibition of bFGF induced angiogenesis ([1]; dose 25 mg/kg): 52% | % Inhibition of VEGF induced angiogenesis ([6]; dose 25 mg/kg once daily): 55% | % Inhibition of VEGF induced angiogenesis ([3]; dose 25 mg/kg): 54% | inhibition of tumor growth (V2-carcinoma; 60 mg/kg/day oral): 35%

O=C1CCC(N2C(=O)c3ccccc3S2(=O)=O)C(=O)N1 (stereo not shown) [Supidimide]
inhibitory activity on corneal neovascularization, in words ([4]; 200 mg/kg orally): no activity | area of corneal neovascularization, % of control ([4]; 200 mg/kg orally, day 8): 107 % of control

O=C1CCC(N2C(=O)c3ccccc3C2=O)C(=O)N1 (stereo not shown) [Thalidomide, thalidomide]
density of vessel ingrowth ([4]; 200 mg/kg orally): markedly reduced | sedation of the rabbits ([4]; 200 mg/kg orally): did not demonstrate obvious sedation | onset of inhibition of angiogenesis ([4]; 200 mg/kg orally (FIG. 7)): after only two doses | inhibition of the area of vascularized cornea, range in three experiments ([4]; 200 mg/kg orally, day 8): 30-51% | median inhibition of the area of vascularized cornea ([4]; 200 mg/kg orally, day 8): 36% | inhibition in vivo at 200 mg/kg [2, 7]: 41% | % Inhibition of bFGF induced angiogenesis ([1]; dose 200 mg/kg): 42% | % Inhibition of VEGF induced angiogenesis ([6]; dose 200 mg/kg once daily): 40% | % Inhibition of VEGF induced angiogenesis ([3]; dose 200 mg/kg): 44% | gastrointestinal symptoms, including diarrhea and cramping (Crohn's disease): lessened | skin lesion on the lower leg (Crohn's disease): resolved | inhibition of tumor growth (V2-carcinoma; 200 mg/kg/day oral): 55%

O=C(O)c1cc2cc(Cc3cccnc3)ccc2o1 [furegrelate sodium]
inhibition of bFGF induced neovascularization [2]: 22%

carbomethylheptyl imidazole
inhibition of bFGF induced neovascularization [2]: 32%
